Reference: patent publication US20250003968A1, “ACTIVITY-BASED CELL SORTING” (MASSACHUSETTS INSTITUTE OF TECHNOLOGY, priority 2021, published 2025)
Where no end group is shown, it is not given here. [ ]: non-standard residue; d: D form. Cy5 = Cy5 fluorophore label; code o = not defined here; QSY21 = quencher dye

Tests used:
[1] = system: CD45-, CD11b- cells from lungs; assay: Activity-based cell sorting / flow cytometry after QZ1 administration; type: in vivo, mouse
Procedure: Eml4-Alk mice (10-12 weeks post tumor induction) and age- and sex-matched C57BL/6J healthy controls (Jackson Labs; 18-22 weeks) were euthanized by isoflurane overdose, and lungs were excised, separated into lobes, and kept in a round cell culture dish (ThermoFisher) on ice. For tumor-bearing lungs, tumors were separated from healthy tissue using forceps and scissors under a dissecting microscope, and the dissected tumors and surrounding tissue were kept in 5 mL Eppendorf tubes (Sigma Aldrich) for preparation into single-cell suspension. Tissue was minced using Noyes spring scissors (Fine Science Tools) until pieces were less than 1 cm in size, with the visual appearance of ground meat. […]
Single cell lung suspensions from Eml4-Alk mice administered QZ1 were stained with the following antibodies (catalog number, vendor, clone, fluorophore, dilution): CD44 (563508, BD, IM7, BV605, 1:200), CD105 (564746, BD, MJ7/18, BV786, 1:200), Ly6-A/E (12-5981-81, ThermoFisher, D7, PE, 1:200), CD11b (557657, BD, M1/70, APC-Cy7, 1:200), CD45 (566439, BD, 30-F11, AF488, 1:400), and EpCAM (118216, BioLegend™, G8.8, PE-Cy7, 1:200). […] Flow cytometry data was analyzed by the FlowJo software (Treestar). […]

Eml4-Alk lungs = assay: In vivo administration of QZ1-(PEG2K), IVIS imaging of explanted lungs; set-up: species or system mouse; settings: two hours post intravenous injection
Procedure: QZ1 (Table 4) was reconstituted to 1 mg/mL in water, then reacted with mPEG-Maleimide, MW 2000 g/mol (Laysan Bio), for PEG coupling via maleimide-thiol chemistry. After completion of the reaction, the final compound was purified using HPLC. All reactions were monitored using HPLC connected with mass spectrometry. […] Eml4-Alk mice (11-12 weeks post tumor induction) and age- and sex-matched C57BL/6J healthy controls (Jackson Labs; 18-22 weeks) were anesthetized using isoflurane inhalation (Zoetis). QZ1-(PEG2K) (4.5 nmoles in 0.9% NaCl) was administered intravenously via tail vein injection. Two hours after probe injection, mice were imaged on an in vivo imaging system (IVIS, PerkinElmer) by exciting Cy5 at 640 nm and measuring emission at 680 nm. Mice were subsequently euthanized by isoflurane overdose followed by cervical dislocation. Lungs were dissected and explanted for imaging via IVIS. Fluorescence signal intensity was quantified using the Living Image software (PerkinElmer, v4).

[2] = biological target: T1, recombinant fibroblast activation protein (FAP) (Homo sapiens, UniProt Q12884); assay: Quenched probe cleavage by recombinant FAP (fluorescence activation); type: biochemical; settings: quenched probe Q1 incorporating S1
T1 sequence (Q12884 26-760 limits assumed): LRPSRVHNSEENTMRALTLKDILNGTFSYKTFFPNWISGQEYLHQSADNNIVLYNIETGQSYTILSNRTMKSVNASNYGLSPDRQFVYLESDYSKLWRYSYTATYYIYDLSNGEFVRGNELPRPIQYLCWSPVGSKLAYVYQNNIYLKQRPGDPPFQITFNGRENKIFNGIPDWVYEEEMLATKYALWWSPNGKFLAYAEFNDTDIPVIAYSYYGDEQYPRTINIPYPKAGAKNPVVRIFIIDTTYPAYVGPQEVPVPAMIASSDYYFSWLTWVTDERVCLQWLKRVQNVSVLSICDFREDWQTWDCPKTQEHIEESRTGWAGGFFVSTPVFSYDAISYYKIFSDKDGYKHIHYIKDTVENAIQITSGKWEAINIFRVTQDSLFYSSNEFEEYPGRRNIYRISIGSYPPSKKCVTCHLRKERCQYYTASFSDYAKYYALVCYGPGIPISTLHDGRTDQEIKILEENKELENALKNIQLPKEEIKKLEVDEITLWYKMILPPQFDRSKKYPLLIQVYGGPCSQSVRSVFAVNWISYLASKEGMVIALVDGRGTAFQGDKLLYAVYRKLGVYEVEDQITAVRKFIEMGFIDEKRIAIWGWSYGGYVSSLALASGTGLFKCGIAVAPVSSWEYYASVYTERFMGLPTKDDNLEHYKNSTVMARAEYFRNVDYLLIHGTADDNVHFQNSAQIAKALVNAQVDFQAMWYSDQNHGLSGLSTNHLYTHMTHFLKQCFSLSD
Procedure: FIG. 10. Fibroblast activation protein (FAP) cleaves S1 in vitro. The quenched probe Q1, incorporating the substrate S1, was incubated with recombinant FAP, and fluorescence activation was monitored over time (n=2 replicates; mean t s.d.).

Substance: (QSY21)-eeeeeeeee-c(PEG2K)-oGGPQGIWGQG-rrrrrrrrr-k(Cy5) (QSY21-[dE][dE][dE][dE][dE][dE][dE][dE][dE][dC](PEG2K)[code o]GGPQGIWGQG[dR][dR][dR][dR][dR][dR][dR][dR][dR][dK](Cy5); reading uncertain; also: X11: 5-amino-3-oxopentanoyl, other spacer, or absent, printed as (QSY21)-eeeeeeeee-c(PEG2K)-oGGPQGIWGQG-rrrrrrrrr-k(Cy5)) [QZ1, PEGylated quenched probe]
- QZ1 staining in cells positive for mesenchymal cell markers ([1]; Eml4-Alk lungs, CD44, CD105, Ly-6A/E): increased QZ1 staining
- QZ1 staining in cells positive for mesenchymal cell markers ([1]; healthy lungs, separate experiment): more variable pattern
- Cy5 fluorescence in explanted Eml4-Alk lungs relative to healthy lungs (Eml4-Alk lungs): significantly increased

Substance: GGPQGIWGQC [S1]
- cleavage by FAP in vitro [2]: cleaves
